Test results as given in patent US8138374B2, “Composition for external application to skin” (Shiseido Company, Ltd., priority 2007, dated 2012).

Assay: Solubility evaluation (appearance and solubility)
Type: physicochemical
Settings: for Solubility (%) Ethanol / Solubility (%) Water / Appearance (Room Temperature): room temperature; for Solubility (%) Ethanol / Solubility (%) Water: judged by appearance, ">" = concentration at which dissolution was confirmed, actual solubility greater than or equal
Method: Furthermore, dissolution was evaluated based on appearance after preparing a solution at room temperature. The solubilities shown in the table indicate the concentration at which dissolution was confirmed, and those results shown with a “>” symbol in the table indicate the concentration at which the substance was confirmed to dissolve, and actual solubility is greater than or equal to this concentration.

Question: With CNCC(=O)O [Sarcosine, reference compound] as the molecule, how does the “solubility in ethanol (in words)” value (ethanol) read?
Answer: poorly soluble

Question: And the “Solubility (%) Ethanol” value (ethanol)?
Answer: 0.10%

Question: What about the “solubility in water (in words)” value (water) of the same molecule?
Answer: high solubility

Question: And the “Solubility (%) Water” value (water)?
Answer: 71.5%

Question: Which results are given for CNCC(=O)N(C)C [N,N-dimethyl-2-(methylamino)acetoamide]?
Answer: Solubility (%) Ethanol (ethanol): >58%; Appearance (Room Temperature): Liquid; Solubility (%) Water (water): >55%

Question: Which results are given for CNCC(=O)N(C)C.Cl [N,N-dimethyl-2-(methylamino)acetoamide hydrochloride]?
Answer: Solubility (%) Ethanol (ethanol): >14.1%; Appearance (Room Temperature): White crystal; Solubility (%) Water (water): >77%
